Results as given in patent US20060058286A1, “Methods of treating HIV infection” (priority 2004, published 2006).

Columns and labels:
[1] = test system: HIV-1 NL4-3; experiment: microbe, parasite or virus in culture; conditions: Human immunodeficiency virus 1, NL43, MT2, 120 h
Protocol: (§1) Virus and cell lines. The T-cell line, MT-2 was obtained through the AIDS Research and Reference Reagent Program, NIAID and was contributed by Dr. D. Richman. The cell line was cultured in RPMI 1640 medium supplemented with 10% fetal bovine serum, 2 mM L-glutamine and sub-cultured twice a week. The NL4-3 strain of HIV-1 was obtained from the AIDS Research and Reference Reagent Program. Both virus stocks were amplified and titered in MT-2 cells using a virus infectivity assay.
(§2) Drug Susceptibility and Cytotoxicity Assays. For drug susceptibility assays, MT-2 cells were infected with HIV-1 NL4-3 at an MOI of 0.001, and seeded into 96-well microtiter plates (2.5×10^5 cells/ml) containing serial dilutions of test compounds. […] Each drug ratio consisted of an array of 3-fold serial dilutions, and was performed in quadruplicate. The plates were incubated at 37° C./5% CO2. The MT-2 cells infected with HIV-1 NL4-3 were incubated for 5 days. On day-five post-infection, 20 μl from each well was harvested and quantitated by a reverse transcriptase (RT) assay or an MTS assay. Cytotoxicity assays were performed using uninfected cells, exposed to the same drug combinations, and incubated for five days. Cell viability was determined by an XTT assay. The CC50 values were calculated by using the exponential form of the median effect equation as mentioned below for calculation of EC50.
(§3) In this equation, Fa stands for “fraction affected,” and represents the fraction of the viral load that has been inactivated.
In carrying out the combination experiments below, the EC50 for Compound 1 and each comparator compound was determined during the course of each study, and used in the subsequent data analysis.

[2] = test system: HIV-1 NL4-3; experiment: Two-drug combination study with Compound 1 (combination indices); type: cell-based; conditions: for Combination Indices at 50% HIV Inhibition (Confidence Interval) / Combination Indices at 75% HIV Inhibition (Confidence Interval) / Combination Indices at 90% HIV Inhibition (Confidence Interval): 95% CI in parentheses; for Overall Result: overall antiviral effect of the two-drug combination with Compound 1, all ratios and effective levels
Protocol: as §1, §2
Analysis of Drug Combination Effects. For determination of CI values, drugs were diluted in a fixed ratio and multiple ratios were analyzed. The drug serial dilutions spanned a range of concentrations near the EC50 value of each compound, so that equivalent antiviral activities could be compared. Concentration-response curves were estimated for each individual drug and every combination using the median-effect equation. The equation was fit using a nonlinear regression routine (Proc Nlin) in PC SAS version 8.01 (SAS Institute Inc., SAS Version 8.01, Cary, N.C.: SAS Institute Inc., 1990).
as §3
To assess antiviral effects of different drug combination treatments, combination indices (CIs) were calculated according to Chou and Rideout. The combination index was computed as CI=[D]1/[Dm]1+[D]2/[Dm]2
In this equation [Dm]1 and [Dm]2 are the concentrations of drugs that would individually produce a specific level of effect, while [D]1 and [D]2 are the concentrations of drugs in combination that would produce the same level of effect.
Theoretically, additivity is implied if the CI is equal to one, synergy if the CI is less than one, and antagonism if the CI is greater than one. […] At best, we can construct a range that contains the likely values for the CI, given the noise in the data. In this report, these ranges are reported in parentheses next to each point estimate of the CI. […] If the range fell entirely above 1.0, we would infer antagonistic behavior. If the range were to include 1.0, we would infer additivity.

[3] = combination with Compound 1, EC50 ratio 1:1 (Compound 1:comparator)
[4] = combination with Compound 1, EC50 ratio 1:2.5 (Compound 1:comparator)
[5] = combination with Compound 1, EC50 ratio 2.5:1 (Compound 1:comparator)

Row | Compound | EC50 [1] | Combination Indices at 50% HIV Inhibition (Confidence Interval) [2, 3] | Combination Indices at 75% HIV Inhibition (Confidence Interval) [2, 3] | Combination Indices at 90% HIV Inhibition (Confidence Interval) [2, 3] | Combination Indices at 50% HIV Inhibition (Confidence Interval) [2, 4] | Combination Indices at 75% HIV Inhibition (Confidence Interval) [2, 4] | Combination Indices at 90% HIV Inhibition (Confidence Interval) [2, 4] | Combination Indices at 50% HIV Inhibition (Confidence Interval) [2, 5] | Combination Indices at 75% HIV Inhibition (Confidence Interval) [2, 5] | Combination Indices at 90% HIV Inhibition (Confidence Interval) [2, 5] | Overall Result [2] | Overall Result ([2]; listed as atazanavir) | combination effect at the 50% effective level ([2]; combination with Compound 1) | combination effect at the 75% and 90% effective levels ([2]; combination with Compound 1) | Overall Result ([2]; listed as stavudine) | Overall Result ([2]; listed as saquinavir)
1 | COC(=O)N[C@H](C(=O)N[C@@H](Cc1ccccc1)[C@@H](O)CN(Cc1ccc(-c2ccccn2)cc1)NC(=O)[C@@H](NC(=O)OC)C(C)(C)C)C(C)(C)C [Atazanavir, atazanavir] | 9 nM | 0.64 (0.54, 0.73) | 0.60 (0.49, 0.72) | 0.59 (0.43, 0.75) | 0.91 (0.81, 1.20) | 0.90 (0.70 1.10) | 0.90 (0.57, 1.23) | 1.01 (0.80, 1.19) | 1.02 (0.77, 1.28) | 1.09 (0.67, 1.50) | Additive- | additive to synergistic |  |  |  | 
2 | CC(C)c1nc(CN(C)C(=O)N[C@H](C(=O)N[C@@H](Cc2ccccc2)C[C@H](O)[C@H](Cc2ccccc2)NC(=O)OCc2cncs2)C(C)C)cs1 [Ritonavir, ritonavir] | 24 nM | 1.35 (0.72, 1.97) | 1.74 (0.61, 2.87) | 2.56 (0.00, 5.18) | 1.23 (0.73, 1.74) | 1.24 (0.53, 1.96) | 1.39 (0.13, 2.65) | 1.37 (0.95, 1.80) | 1.18 (0.67, 1.68) | 1.13 (0.37, 1.88) | Additive |  |  |  |  | 
3 | Cc1cn([C@H]2C=C[C@@H](CO)O2)c(=O)[nH]c1=O [Stavudine, stavudine] | 55 nM | 0.63 (0.42, 0.85) | 0.51 (0.29, 0.74) | 0.43 (0.10, 0.75) | 1.32 (0.94, 1.69) | 0.68 (0.41, 0.94) | 0.36 (0.12, 0.59) | 1.20 (0.88, 1.51) | 0.71 (0.45, 0.96) | 0.43 (0.17, 0.68) | Additive- |  | additivity | synergy | additive-synergistic | 
4 | CC(C)(C)NC(=O)[C@@H]1C[C@@H]2CCCC[C@@H]2CN1C[C@@H](O)[C@H](Cc1ccccc1)NC(=O)[C@H](CC(N)=O)NC(=O)c1ccc2ccccc2n1 [Saquinavir, saquinavir] | 11 nM | 0.65 (0.49, 0.80) | 0.85 (0.56, 1.14) | 1.20 (0.55, 1.84) | 0.55 (0.42, 0.68) | 0.97 (0.65, 1.29) | 1.81 (0.86, 2.77) | 0.47 (0.38, 0.56) | 0.60 (0.44, 0.75) |  | Additive- |  |  |  |  | additive to synergistic
